Source: patent US10660333B2, “Substituted 2-heterocyclylimidazolylcarboxamides as pesticides” (BAYER CROPSCIENCE AKTIENGESELLSCHAFT, priority 2016, dated 2020)
Like-named read-outs stand apart in the source and are kept apart here.

Columns and labels:
Myzus persicae [1] = experiment: Myzus persicae - spray test (MYZUPE), comparison with prior art; format: in vivo; conditions: for Emax at 4 g/ha / Emax at 20 g/ha / Emax at 100 g/ha / Emax at 500 g/ha: Myzus persicae, read-out: % efficacy
Experimental: Myzus persicae—Spray Test (MYZUPE)
(§1) To produce a suitable active ingredient formulation, 1 part by weight of active ingredient is dissolved with the specified parts by weight of solvent and made up to the desired concentration with water containing an emulsifier concentration of 1000 ppm. To produce further test concentrations, the formulation is diluted with emulsifier-containing water.
(§2) Discs of Chinese cabbage leaves (Brassica pekinensis) infested by all stages of the green peach aphid (Myzus persicae) are sprayed with an active ingredient formulation of the desired concentration.
(§3) After the desired period of time, the efficacy in % is determined. 100% means that all the aphids have been killed; 0% means that no aphids have been killed.

Myzus persicae [2] = experiment: Myzus persicae - oral test (MYZUPE O), comparison with prior art; format: in vivo; conditions: 5 dat; for Emax at 0.8 ppm / Emax at 4 ppm: Myzus persicae, po, 120 h, read-out: % efficacy
Experimental: Myzus persicae—Oral Test (MYZUPE O)
(§4) To produce a suitable active ingredient formulation, 1 part by weight of active ingredient is dissolved with the specified parts by weight of solvent and made up to the desired concentration with water.
(§5) 50 μl of the active ingredient formulation are transferred into microtitre plates and made up to a final volume of 200 μl with 150 μl of IPL41 insect medium (33%+15% sugar). Subsequently, the plates are sealed with parafilm, which a mixed population of green peach aphids (Myzus persicae) within a second microtitre plate is able to puncture and imbibe the solution.
as §3

[3] = log P by HPLC on reversed-phase (C18) columns, OECD Guideline 117; format: physicochemical; conditions: for chromatographic logP: reversed-phase (C18) HPLC column
Myzus persicae [4] = experiment: Myzus persicae - spray test; format: in vivo; conditions: 500 g/ha, Chinese cabbage leaf discs, after 5 days; for pest or weed control at 500 g/ha: Myzus persicae, foliar, 120 h, read-out: efficacy (aphids killed)
Experimental: Myzus persicae—Spray Test
as §1, §2
(§6) After 5 days, the efficacy in % is determined. 100% means that all the aphids have been killed; 0% means that no aphids have been killed.

Myzus persicae [5] = experiment: Myzus persicae - oral test; format: in vivo; conditions: 4 ppm, oral, after 5 days; for pest or weed control at 4 ppm: Myzus persicae, 120 h, read-out: efficacy (aphids killed)
Experimental: as §4, §5, §6

Myzus persicae [6] = experiment: Myzus persicae - spray test (MYZUPE S), bell pepper plants; format: in vivo; conditions: 6 dat; for Emax at 0.16 ppm / Emax at 0.8 ppm: Myzus persicae, 144 h, read-out: % efficacy
Experimental: Myzus persicae—Spray Test (MYZUPE S)
as §1, with “water. If the addition of ammonium salts or/and penetrants is required, these are each added in a concentration of 1000 ppm to the formulation solution.” for “water.”
Bell pepper plants (Capsicum annuum) severely infested with the green peach aphid (Myzus persicae) are treated by spraying with the active ingredient formulation in the desired concentration.
After the desired time, the kill in % is determined. 100% means that all the animals have been killed; 0% means that no animals have been killed.

Myzus persicae [7] = experiment: Myzus persicae - drench test (MYZUPE D), savoy cabbage; format: in vivo; conditions: 10 dat; for Emax at 0.16 ppm / Emax at 0.8 ppm: Myzus persicae, soil, 240 h, read-out: % efficacy
Experimental: Myzus persicae—Drench Test (MYZUPE D)
To produce a suitable active ingredient formulation, 1 part by weight of active ingredient is mixed with the specified amounts of solvent and emulsifier, and the concentrate is diluted with water to the desired concentration, it being necessary to include the volume of soil which is drenched in the calculation. It should be ensured that a concentration of 40 ppm of emulsifier in the soil is not exceeded. To produce further test concentrations, water is used for dilution.
Savoy cabbage (Brassica oleracea) in pots with soil and infested by all stages of the green peach aphid (Myzus persicae) is watered with an active ingredient formulation of the desired concentration.
as §3

Aphis gossypii = Aphis gossypii - spray test (APHIGO S), cotton plants; format: in vivo; conditions: 144 h, 6 dat, read-out: % efficacy
Experimental: Aphis gossypii—Spray Test (APHIGO S)
as §1, with “water. If the addition of ammonium salts or/and penetrants is required, these are each added in a concentration of 1000 ppm to the formulation solution.” for “water.”
Cotton plants (Gossypium hirsutum) heavily infested by the cotton aphid (Aphis gossypii) are sprayed with an active ingredient formulation of the desired concentration.
After the desired time, the kill in % is determined. 100% means that all the aphids have been killed; 0% means that no aphids have been killed.

[8] = 120 h, 4 g/ha (g of ai/ha), 5 dat
[9] = 120 h, 20 g/ha (g of ai/ha), 5 dat
[10] = 120 h, 100 g/ha (g of ai/ha), 5 dat
[11] = HPLC RP C18, acidic range pH 2.7, 0.1% formic acid/acetonitrile, read-out: logP[a]
[12] = HPLC RP C18, neutral range pH 7.8, ammonium hydrogencarbonate/acetonitrile, read-out: logP[n]

| SMILES | Emax at 4 g/ha (Myzus persicae [1]; [8]) [%] | Emax at 20 g/ha (Myzus persicae [1]; [9]) [%] | Emax at 100 g/ha (Myzus persicae [1]; [10]) [%] | Emax at 0.8 ppm (Myzus persicae [2]; 0.8 ppm) [%] | Emax at 4 ppm (Myzus persicae [2]; 4 ppm) [%] | chromatographic logP [3, 11] | chromatographic logP [3, 12] | pest or weed control at 500 g/ha (Myzus persicae [4]) [%] | pest or weed control at 4 ppm (Myzus persicae [5]) [%] | Emax at 500 g/ha (Myzus persicae [1]; 120 h, 500 g/ha, 5 dat) [%] | Emax at 0.16 ppm (Myzus persicae [6]; 0.16 ppm) [%] | Emax at 0.8 ppm (Myzus persicae [6]; 0.8 ppm) [%] | Emax at 0.16 ppm (Myzus persicae [7]; 0.16 ppm) [%] | Emax at 0.8 ppm (Myzus persicae [7]; 0.8 ppm) [%] | Emax at 0.16 ppm (Aphis gossypii) [%] | Emax at 0.8 ppm (Aphis gossypii) [%] | further results |
| --- | --- | --- | --- | --- | --- | --- | --- | --- | --- | --- | --- | --- | --- | --- | --- | --- | --- |
| Cc1nc(C(=O)Nc2cccnc2)c[nH]1 [WO 2011/009804 (Ex. 14), reference compound] | 0 | 0 | 0 | 0 | 0 |  |  |  |  |  |  |  |  |  |  |  |  |
| CCC1=NOC(c2ncc(C(=O)N(C)c3cccnc3)n2C)C1 (centres unmarked) [Example I-1-2] |  | 90 | 70 | 100 | 100 | 0.71 | 1.09 | 90 | 100 | 90 | 100 | 100 | 98 | 100 | 98 | 98 |  |
| CN(C(=O)c1cnc(C2CC=NO2)n1C)c1cccnc1 (centres unmarked) [Example I-1-30] |  | 70 | 70 | 100 | 90 | 0.1 | 0.57 | 90 | 90 | 90 | 95 | 100 | 95 | 95 |  | 80 |  |
| CN(C(=O)c1cnc(C2CC(c3ccc(F)cc3)=NO2)n1C)c1cccnc1 (centres unmarked) [Example I-1-22] |  |  |  |  |  |  |  |  |  |  |  |  |  |  |  |  | logP[a] ([3]; pH 2.7): 1.55; logP[n] ([3]; pH 7.8): 1.82; efficacy (aphids killed) (Myzus persicae [4]): 100%; efficacy (aphids killed) (Myzus persicae [5]): 100%; % efficacy (Myzus persicae [1]; 4 g/ha (g of ai/ha), 5 dat): 90%; % efficacy (Myzus persicae [1]; 20 g/ha (g of ai/ha), 5 dat): 100%; % efficacy (Myzus persicae [1]; 100 g/ha (g of ai/ha), 5 dat): 100%; % efficacy (Myzus persicae [1]; 500 g/ha, 5 dat): 100%; % efficacy (Myzus persicae [2]; 0.8 ppm): 90%; % efficacy (Myzus persicae [2]; 4 ppm): 100%; % efficacy (Myzus persicae [6]; 0.16 ppm): 90%; % efficacy (Myzus persicae [6]; 0.8 ppm): 99%; % efficacy (Myzus persicae [7]; 0.16 ppm): 90%; % efficacy (Myzus persicae [7]; 0.8 ppm): 95% |
| CC1=NOC(c2ncc(C(=O)N(C)c3cccnc3)n2C)C1 (centres unmarked) [Example I-1-1] | 70 | 70 | 70 | 100 | 100 | 0.27 | 0.76 | 100 | 100 | 100 | 100 | 95 | 100 | 100 | 100 | 100 |  |
| CN(C(=O)c1cnc(C2CC(C3CC3)=NO2)n1C)c1cccnc1 (centres unmarked) [Example I-1-4] | 70 | 100 | 90 | 100 | 100 | 0.85 | 1.15 | 90 | 100 | 90 | 98 | 100 | 95 | 100 | 90 | 100 |  |
| CCc1ncc(C(=O)N(C)c2cccnc2)n1C [reference compound] |  |  |  |  |  |  |  |  |  |  | 0 |  | 0 |  | 0 | 0 |  |
| CCOC(=O)c1cc(-c2ncc(C(=O)N(C)c3cccnc3)n2C)on1 [reference compound] | 0 | 0 | 0 | 0 | 0 |  |  |  |  | 0 |  |  |  |  |  |  |  |
| CC(C)C1=NOC(c2ncc(C(=O)N(C)c3cccnc3)n2C)C1 (centres unmarked) [Example I-1-3] |  | 70 | 90 | 100 | 100 | 1.08 | 1.34 | 100 | 100 | 100 | 99 | 100 | 95 | 100 | 70 | 100 |  |
| O=C(Nc1cccnc1)c1c[nH]cn1 [WO 2011/009804 (Ex. 13), reference compound] |  |  |  | 0 | 0 |  |  |  |  |  |  |  |  |  |  |  | Emax at 4 g/ha (Myzus persicae [1]; 144 h, 4 g/ha, 6 dat): 0%; Emax at 20 g/ha (Myzus persicae [1]; 144 h, 20 g/ha, 6 dat): 0%; Emax at 100 g/ha (Myzus persicae [1]; 144 h, 100 g/ha, 6 dat): 0% |
| CN(C(=O)c1cnc(C2CC(c3ccc(C(F)(F)F)cn3)=NO2)n1C)c1cccnc1 (centres unmarked) [Example I-1-36] | 100 | 90 | 90 | 100 | 100 | 1.84 | 1.97 | 100 | 100 | 100 | 90 | 99 | 70 | 80 |  | 97 |  |
| Cc1ncc(C(=O)N(C)c2cccnc2)n1C [reference compound] |  |  |  |  |  |  |  |  |  |  | 0 |  | 30 |  | 0 | 0 |  |
| Cc1ncc(C(=O)Nc2cccnc2)n1C [reference compound] | 0 | 0 |  |  |  |  |  |  |  |  | 0 | 30 | 0 | 0 | 0 | 0 |  |
| CN(C(=O)c1cnc(-c2cc(-c3ccccc3)no2)n1C)c1cccnc1 [reference compound] |  |  |  |  |  |  |  |  |  |  | 0 | 0 | 0 | 0 | 0 | 0 | Emax at 4 g/ha (Myzus persicae [1]; 144 h, 4 g/ha, 6 dat): 0%; Emax at 20 g/ha (Myzus persicae [1]; 144 h, 20 g/ha, 6 dat): 0% |
| CN(C(=O)c1cnc(C2CC(C(F)(F)F)=NO2)n1C)c1cccnc1 (centres unmarked) [Example I-1-32] |  |  |  | 100 | 100 | 1.45 | 1.59 | 90 | 100 | 90 | 20 | 96 | 90 | 99 | 90 | 97 |  |
| CN(C(=O)c1cnc(C2CC2)n1C)c1cccnc1 [reference compound] |  |  |  |  |  |  |  |  |  |  | 5 |  |  |  | 10 | 30 |  |
